For series [1], the system named is Fibronectin (FN). As to the kind of experiment: EMT on target screen, FN read-out. The class given is cell-based, human. Conditions: for OT FN Screen Z-score 2: as E11, duplicate 2; for Both (shRNA is a hit again in both OT assays, Yes/No): on target validation, Table 16; for OT FN Screen Z-score 1: robust Z-score, HBEC donor Br299, duplicate 1, cut-off Z ≦ −1.25.

The subject of series [2] is HBEC.
The subject of series [3] is MMP10. The series is described as follows: EMT on target screen, MMP10 read-out. The class given is cell-based, human. To be noted: for OT MMP10 Screen Z-score 2: as E13, duplicate 2; for OT MMP10 Screen Z-score 1: robust Z-score, HBEC donor Br299, duplicate 1, cut-off Z ≦ −1.25.
Series [4] concerns HBEC. The series is described as follows: ATPlite secondary toxicity assay. Background: Cellular ATP, detected with luciferase, serves as a proxy for viable cell number.
Description: In addition, a second toxicity assay was developed using the ATPlite (Perkin Elmer) assay to evaluate possible toxicity caused by target viruses. With this assay ATP, which is produced by metabolically active cells, reacts with luciferase and D-luciferin to emit light. This assay is based on the luciferase-mediated and ATP-dependent conversion of D-luciferin into oxyluciferin resulting in emission of light. The emitted light, measured as luminescence, is proportional to the ATP concentration in the sample and thus to the number of viable cells.
A staurosporin concentration curve (two-fold dilution ranging from 1 to 0.03 μM) was added to each cell plate as a reference for toxicity and the ATPlite read-out was performed.
The data after log transformation and robust Z-score normalization based on negatives was used for the analysis of the results.
The subject of series [5] is HBEC. As to the kind of experiment: CellTiter-Blue (CTB) cell viability assay in on target screen. A general note: Resazurin is reduced to fluorescent resorufin, in cell work by metabolically active cells.

For the molecule “58 (GATCCCAGCAGTTATAACA; chemistry not given here) [compound 58]”, in series [1], the “OT FN Screen Z-score 2” value is -6.55; the “Both (shRNA is a hit again in both OT assays, Yes/No)” value was “no”; the “OT FN Screen Z-score 1” value is listed as -2.47. Besides, in series [2], the “OT CTB assay Z-score 1” value is on record as -4.03 and the “OT CTB assay Z-score 2” value was -2.02. In series [3], the “OT MMP10 Screen Z-score 2” value was -3.41 and the “OT MMP10 Screen Z-score 1” value is -3.06.

On to “57 (CCAAACCTGTGTCAACTTC; chemistry not given here) [compound 57]”, for which, in series [1], the “OT FN Screen Z-score 2” value is -3.69; the “Both (shRNA is a hit again in both OT assays, Yes/No)” value was “no”; the “OT FN Screen Z-score 1” value is on record as -8.59. For the same molecule, in series [2], the “OT CTB assay Z-score 1” value is reported as -1.43 and the “OT CTB assay Z-score 2” value is reported as 0.38. Further, in series [3], the “OT MMP10 Screen Z-score 2” value was -1.94 and the “OT MMP10 Screen Z-score 1” value was -0.60.

Turning to “61 (CAATTCCCAAGGACAGGCT; chemistry not given here) [compound 61]”, in series [1], the “OT FN Screen Z-score 2” value was -1.44; the “Both (shRNA is a hit again in both OT assays, Yes/No)” value is listed as “no”; the “OT FN Screen Z-score 1” value is -1.65. In addition, in series [2], the “OT CTB assay Z-score 1” value was 0.59 and the “OT CTB assay Z-score 2” value was determined as 0.86. Also, in series [3], the “OT MMP10 Screen Z-score 2” value is -2.31 and the “OT MMP10 Screen Z-score 1” value is on record as -2.21.

In the case of “54 (GACTGGAAAGCGACGGGTC; chemistry not given here) [compound 54]”, in series [1], the “OT FN Screen Z-score 2” value is on record as -3.15; the “Both (shRNA is a hit again in both OT assays, Yes/No)” value is reported as “no”; the “OT FN Screen Z-score 1” value is recorded as -3.47. Also, in series [2], the “OT CTB assay Z-score 1” value is on record as -4.02 and the “OT CTB assay Z-score 2” value is on record as -5.83. Further, in series [3], the “OT MMP10 Screen Z-score 2” value came out at 0.94 and the “OT MMP10 Screen Z-score 1” value was 0.62.

As for “67 (CAAGAGCGATGCCTATTAC; chemistry not given here) [compound 67]”, in series [1], the “OT FN Screen Z-score 2” value is on record as -2.65; the “Both (shRNA is a hit again in both OT assays, Yes/No)” value is recorded as “no”; the “OT FN Screen Z-score 1” value is given as -3.19. Also, in series [2], the “OT CTB assay Z-score 1” value is -3.77 and the “OT CTB assay Z-score 2” value was -3.83. Besides, in series [3], the “OT MMP10 Screen Z-score 2” value is 0.32 and the “OT MMP10 Screen Z-score 1” value was determined as 1.39.

Turning to “71 (CACGGCTCTCCTATTTGTC; chemistry not given here) [compound 71]”, in series [1], the “OT FN Screen Z-score 2” value is -1.64; the “Both (shRNA is a hit again in both OT assays, Yes/No)” value was “no”; the “OT FN Screen Z-score 1” value is -1.73. In addition, in series [2], the “OT CTB assay Z-score 1” value is recorded as -5.58 and the “OT CTB assay Z-score 2” value is reported as -4.56. For the same molecule, in series [3], the “OT MMP10 Screen Z-score 2” value stood at 0.95 and the “OT MMP10 Screen Z-score 1” value is reported as 0.88.

In the case of “46 (ACTTCTGAGAGGTCACAGC; chemistry not given here) [compound 46]”, in series [1], the “OT FN Screen Z-score 2” value is on record as -7.86; the “Both (shRNA is a hit again in both OT assays, Yes/No)” value is “yes”; the “OT FN Screen Z-score 1” value is reported as -8.84. Moreover, in series [2], the “OT CTB assay Z-score 1” value is -2.43 and the “OT CTB assay Z-score 2” value is listed as -5.13. Moreover, in series [3], the “OT MMP10 Screen Z-score 2” value is -2.42 and the “OT MMP10 Screen Z-score 1” value is -2.20.

As for “51 (GGATCTTGGGTCCTATCCC; chemistry not given here) [compound 51]”, in series [1], the “OT FN Screen Z-score 2” value is reported as -3.08; the “Both (shRNA is a hit again in both OT assays, Yes/No)” value is on record as “no”; the “OT FN Screen Z-score 1” value is given as -2.90. In series [2], the “OT CTB assay Z-score 1” value is -0.73 and the “OT CTB assay Z-score 2” value is -2.03. Besides, in series [3], the “OT MMP10 Screen Z-score 2” value is listed as -0.23 and the “OT MMP10 Screen Z-score 1” value is given as -0.02.

`CN[C@@H]1C[C@H]2O[C@@](C)([C@@H]1OC)n1c3ccccc3c3c4c(c5c6ccccc6n2c5c31)C(=O)NC4` [staurosporin]: the toxicity in series [4] (0.6 μM staurosporin treatment) came to 30%. The “average Z-score” value in series [4] (0.6 μM staurosporin, robust Z-score on negatives) was −5.5. The “luminescence at highest concentration of staurosporin used” value in series [4] (concentration curve 1 to 0.03 μM) is “decreased the luminescence to near background signal”. The “average Z-score of CTB data” value in series [5] (0.03 μM staurosporin, lowest concentration of the standard curve) is “within the same range as the control panel and the trigger only samples”. Also, in series [5] (0.06 μM staurosporin), the “Z-score of CTB data” value is on record as “decreased clearly”.

Source of the values: patent US20160003808A1, “MOLECULAR TARGETS AND COMPOUNDS, AND METHODS TO IDENTIFY THE SAME, USEFUL IN THE TREATMENT OF DISEASES ASSOCIATED WITH EPITHELIAL MESENCHYMAL TRANSITION” (GALAPAGOS NV, priority 2013, published 2016).
